Data on five compounds can be found in patent EP0279357A2, “Composition for the treatment of coronary diseases or organic brain syndrome” (BOEHRINGER INGELHEIM KG, priority 1987, dated 1988).

Experiment [1] relates to Ca²⁺-Influx durch K⁺ Depolarisation. Briefly: Ca2+ influx by K+ depolarisation. Particulars: Oryctolagus cuniculus; compound 10⁻⁵ mol/l; read-out: Hemmung des Ca²⁺-Influx durch K⁺ Depolarisation. In kind it is cell-based, Kaninchen. From the text:
(§1) 2. In einer weiteren Testanordnung wurde die Wirkung und der Mechanismus der Verbindungen auf die Ca²⁺-Fluxe wie folgt nachgewiesen: Die Bestimmung des Ca²⁺-Efflux wurde nach der Methode von C. van Breemen, P. Aarsonson, R. Loutzenheiser und K. Meisheri (Chest 78, 157S-165S (1980) und von R. Casteels und G.Droogman (J.Physiol. 317, 263-276 (1981)) durchgeführt. Mit dem Ca²⁺-Efflux wird die intrazelluläre Ca²⁺-Freisetzung auf eine Rezeptorstimulation gemessen. Damit ist eine quantitative Beurteilung des Ausmaßes der Rezeptor-vermittelten Wirkung möglich.
(§2) Untersuchungen zum Ca²⁺-Efflux an der Kaninchen-Aorta ergaben, daß die Verbindungen der Formel I den durch Kaliumionen und Noradrenalin stimulierten Ca²⁺-Efflux hemmen.
(§3) Versuche mit der oben genannten Verbindung A (N-[N-(1-L-Ethoxycarbonyl-3-phenylpropyl)-L-alanyl]4,5,6,7-tetrahydro-thieno[2,3-c]pyridin-7-L-carbonsäure ergaben: Die Hemmung des durch 10⁻⁵ mol/l Noradrenalin stimulierten Ca²⁺ Efflux liegt bei 25, 24 und 30 % mit der oben angeführten Verbindung A in den entsprechenden Konzentrationen 10⁻⁶, 10⁻⁵ und 10⁻⁴ mol/l. Das weist auf eine grundsätzlich nur partielle Hemmung hin. Der Ca²⁺-Influx durch K⁺ Depolarisation wird zu 38% gehemmt (10⁻⁵ mol/l der Verbindung A).

For experiment [2], the system named is ischämischen Langendorff-Herzen. Description: Ischaemic Langendorff heart, recovery of regular contractions after reperfusion (in vitro or ex vivo). Particulars: ischaemic Langendorff hearts. An excerpt: Hieraus läßt sich eine protektive Wirksamkeit der Substanzen auf Herzschädigungen während Hypoxie oder Ischämie ableiten.
Experiment [3] has as its system myocardiale Radiocalciumaufnahme. Description: Inhibition of isoprenaline-induced myocardial radiocalcium uptake in conscious rats after oral dosing (method of Arndts). In kind it is in vivo, Ratten. Particulars: Rattus norvegicus, oral dose that inhibits by 50 % the myocardial radiocalcium uptake caused by 30 mg/kg s.c. Isoprenalin, read-out: H50. From the text: 1. Bekanntlich ist der myocardiale Ca²⁺ Gehalt ein Maß für die hypoxische bzw. die durch toxische Catecholamindosen hervorgerufene Herzschädigung (Higgins et al. Mol. Cell. Cardiol. 10. 427-438, 1984; Nakanishi et. al., Am. J. Physiol. 242, 437-449, 1982; Fleckenstein A., Vorträge der Erlanger Physiol. Tagung 1970, Edit. Keidel, Springer Verl. Berlin; Heidelberg, New York, 1971). Umgekehrt ist die Inhibition der hypoxischen oder Isoprenalin-bedingten myocardialen Calciumaufnahme ein Maß für die cardioprotektive Effektivität von Calciumantagonisten (Fleckenstein s.o), von Calmodulinhibitoren (Higgins s.o.) und anderen Pharmaka, z.B. Betaadrenolytika (Arndts, Arzneimittelforschung, 25, 1279-1284 (1975)). Die cardioprotektive Wirkung wurde an wachen Ratten nach oraler Wirkstoffgabe anhand der von Arndts (s.o.) beschriebenen Methoden festgestellt und die Wirkungsstärke der Testsubstanzen als H₅₀-Werte angegeben; dieser Wert entspricht der Dosis, die die durch eine Gabe von 30 mg/kg s.c. Isoprenalin bedingte myocardiale Radiocalciumaufnahme bis 50 % hemmt. Hier erwiesen sich die vorliegenden Verbindungen als wirksamer als die bekannten Handelsprodukte Captopril und Enalapril. Die Ergebnisse sind in Tabelle I dargestellt.

Experiment [4] concerns Ca²⁺-Efflux an der Kaninchen-Aorta. Description: Stimulated Ca2+ efflux in rabbit aorta (method of van Breemen et al. / Casteels and Droogman). In kind it is cell-based. The note with it: Oryctolagus cuniculus, read-out: Hemmung des durch 10⁻⁵ mol/l Noradrenalin stimulierten Ca²⁺ Efflux.
Description: as §1, §2, §3

The subject of the next experiment is Mäusen (ChbI:NMRI). Description: Scopolamine test: passive avoidance reaction in mice. In kind it is in vivo. From the text: Durch den cholinerg-muskarinen Antagonisten Scopolamin wird bei Mensch und Tier eine vorübergehende Störung des Überganges von Inhalten des Kurzzeitgedächtnisses in das Langzeitgedächtnis hervorgerufen. Die auch klinisch bei gesunden Probanden durch Scopolamin auslösbaren, mnestischen Störungen sind in ihrer Ausprägung den psychopathologischen Veränderungen bei Patienten mit organischem Hirnsyndrom ähnlich (Drachman & Leavitt, 1974).
Der Scopolamin-Test wird an Gruppen von jeweils 10 männlichen, nicht nüchternen, naiven Mäusen (ChbI:NMRI; Körpergewicht 35 g) mit Hilfe einer passiven Vermeidereaktion durchgeführt. Das Testgerät besteht aus einer Skinner Box (30 cm × 26 cm × 29 cm) mit einem elektrifizierbaren Gitterboden und einer Plastikplattform (5 cm × 5 cm) an einer Seitenwand. Die Tiere werden einzeln in die Skinner Box gesetzt. Nach einer Orientierungsperiode von 30 sec werden kurze, unterbrochene Stromstöße von ca. 0,8 mA so oft an den Gitterboden der Box gelegt, bis das Tier gelernt hat, daß das Aufsuchen und Verweilen auf der Plastikplattform vor dem Stromstoß Sicherheit gewährt. Tiere, welche dies innerhalb von 120 sec nicht lernen, werden nicht weiter verwendet. Die anderen Mäuse werden unmittelbar nach Erlernen der passiven Vermeidereaktion in drei Gruppen (10 Tiere pro Gruppe) eingeteilt. Eine Gruppe erhält Scopolaminhydrobromid (0,6 mg/kg s.c.) und oral Vehikel (0,5 % Tylose); die zweite Gruppe Scopolaminhydrobromid sowie die zu testende Substanz per os in 0,5 % Tylose und die dritte Gruppe lediglich 0,5 % Tylose p.o.. Eine Stunde nach Application wird jedes Tier einzeln auf die Plattform gesetzt, um das Erinnerungsvermögen an die erlernte Vermeidereaktion zu prüfen. Das Kriterium besteht in der Bestimmung, ob die Maus während mindestens 60 sec. auf der Plattform verbleibt (Ja-Antwort) oder nicht (Nein-Antwort).
Etwa 75% der Tiere, welche ausschließlich mit 0,5 % Tylose behandelt wurden, verbleiben bei der abschließenden Prüfung länger als 60 sec. auf der Plattform: ein Ergebnis, welches als Ausdruck des guten Erinnerungsvermögens an die erlernte Erfahrung gedeutet werden kann. Nach Gabe von Scopolamin und Tylose verbleiben durchschnittlich etwa 25 % der Tiere auf der Plattform; dies zeigt die erhebliche Beeinträchtigung des Erinnerungsvermögens nach Gabe von Scopolamin. Verbindungen der Formel I antagonisieren die Scopolaminwirkung statistisch signifikant. Zum Beispiel ist die oben genannte Verbindung A (N-[N-(1-L-Ethoxycarbonyl-3-phenylpropyl)-L-alanyl]-4,5,6,7-tetrahydro-thieno[2,3-c]-pyridin-7-L-carbonsäure) bei einer Dosis über 0,1 mg/kg p.o. (insbesondere ab 0,5 mg/kg p.o.) wirksam. In Gegensatz dazu sind Captopril bei Dosen von 10 und 30 mg/kg p.o. und Enalapril bei einer Dosis von 5 mg/kg p.o. unwirksam.

For the compound `CCOC(=O)[C@H](CCc1ccccc1)N[C@@H](C)C(=O)N1CCc2ccsc2[C@H]1C(=O)O` [A, N-[N-(1-L-Ethoxycarbonyl-3-phenylpropyl)-L-alanyl]-4,5,6,7-tetrahydro-thieno[2,3-c]pyridin-7-L-carbonsäure], the inhibition at 10 µM in experiment [1] worked out at 38%; in experiment [4] (compound 10⁻⁵ mol/l), 24%. Moreover, in experiment [2], the “Wiederauftreten regelmäßiger Kontraktionen nach Reperfusion” value is given as “zeitliche Verkürzung des Wiederauftretens regelmäßiger Kontraktionen”. For the same compound, the ED50 in experiment [3] is 0.63 mg/kg. The inhibition at 100 µM in experiment [4] (compound 10⁻⁴ mol/l) turned out to be 30%. Further, the inhibition at 1 µM in experiment [4] (compound 10⁻⁶ mol/l) is 25%. In addition, the “Antagonismus der Scopolaminwirkung” value in the experiment with Mäusen (ChbI:NMRI) (dose above 0,1 mg/kg p.o. (especially from 0,5 mg/kg p.o.)) is on record as “wirksam”.
As to `CC(CS)C(=O)N1CCC[C@@H]1C(=O)O` (stereo partly drawn) [Captopril, D-2-Methyl-3-mercaptopropanoyl-L-prolin], the “Wiederauftreten regelmäßiger Kontraktionen nach Reperfusion” value in experiment [2] was “deutlich schwächer”. Also, the ED50 in experiment [3] was found to be 1.52 mg/kg. Further, the “Antagonismus der Scopolaminwirkung” value in the experiment on Mäusen (ChbI:NMRI) (10 mg/kg p.o.) and in the experiment on Mäusen (ChbI:NMRI) (30 mg/kg p.o.) was “unwirksam” each time.
For `C[C@H](N[C@@H](CCc1ccccc1)C(=O)O)C(=O)N1Cc2nc[nH]c2C[C@H]1C(=O)O` [D, N-[N-(1-L-Carboxy-3-phenylpropyl)-L-alanyl]-4,5,6,7-tetrahydro-1H-imidazo[4,5-c]pyridin-6-L-carbonsäure], the ED50 in experiment [3] was found to be 1.32 mg/kg.
For `C[C@H](N[C@@H](CCc1ccccc1)C(=O)O)C(=O)N1Cc2ccsc2C[C@H]1C(=O)O` [E, N-[N-(1-L-Carboxy-3-phenylpropyl)-L-alanyl]-4,5,6,7-tetrahydro-thieno[3,2-c]pyridin-6-L-carbonsäure], in experiment [3], the ED50 was found to be 1.1 mg/kg.
Turning to `CCOC(=O)[C@H](CCc1ccccc1)N[C@@H](C)C(=O)N1CCC[C@H]1C(=O)O` [Enalapril, 1-N-[(S)-1-Ethoxycarbonyl-3-phenylpropyl]-S-alanyl-S-prolin], the “Wiederauftreten regelmäßiger Kontraktionen nach Reperfusion” value in experiment [2] was “deutlich schwächer”. In addition, in experiment [3], the ED50 came out at 1.59 mg/kg. Besides, the “Antagonismus der Scopolaminwirkung” value in the experiment with Mäusen (ChbI:NMRI) (5 mg/kg p.o.) is given as “unwirksam”.
